# What was measured:
# [1] = test system: thigh muscle of adult rats; experiment: Coated Vicryl sutures implanted in muscle, histology; type: in vivo; details: two weeks; compared to control suture
# From the text: Vicryl suture material was coated using a solution containing silyl-heparin complex or a solution containing silyl-heparin complex followed by immersion in bFGF as described above. The suture material was then rinsed extensively, air-dried, mounted on 16 gage needles and stored until use, typically overnight. Under anesthesia, the sutures were passed through the thigh muscle of adult rats and secured with knots and surgical clips. After two weeks the animals were euthanized and the sutured area removed, fixed in formalin, and processed by standard histological methods.
# [2] = test system: Bovine aorta endothelial cells; experiment: Capillary tube formation on coated low attachment wells; type: cell-based; details: 5×10^3 cells per well; DMEM containing 10% FBS; 4 days; phase contrast microscopy
# Description: Low attachment 96 well plates were coated with saline, silyl-heparin complex, silyl-heparin-fibrinogen complex or silyl-heparin-bFGF complex. Bovine aorta endothelial cells (5×10^3 cells) were seeded into each well in DMEM containing 10% FBS. The cells were allowed to grow for 4 days and the cultures examined by phase contrast microscopy.
# [3] = test system: bovine aorta endothelial (BAE) cells; experiment: Cell attachment, spreading and growth on coated low-attachment polystyrene wells; type: cell-based; details: 10^4 cells/well, serum-containing medium
# From the text: (§1) Several cell types were used, including GS-9L cells (rat gliosarcoma), C3H10T1/2 (murine fibroblasts), Jurkat (human T cell), bovine aorta endothelial (BAE) cells and rat lymphocytes. GS-9L and C3H10T1/2 cells were maintained in log phase growth and detached from cultureware using Versene and collected by centrifugation. Jurkat cells grew as single cell suspensions and were collected by centrifugation. Rat lymphocytes were collected from heparinized blood by density gradient isolation over Ficoll-Hypaque® media. The collected cells were rinsed once by low speed centrifugation and suspended in either serum-free Dulbecco's Modified Eagles Medium (DMEM) containing pyruvate or RPMI 1640 containing 10% fetal bovine serum (FBS) supplemented with pyruvate. Aliquots of 10^4 cells in 100 μL were used in subsequent adhesion studies.
# (§2) The cells were examined after plating using an inverted, phase-contrast microscope. At selected time points up to 4 days after initial seeding, the cells were rinsed three times in saline and fixed in buffered 10% formalin or 35% ethanol. In some cases, the cells were stained in situ with a 0.01 % aqueous solution of crystal violet. The amount of attachment was scored visually or quantitated. To establish the relative number of cells bound, crystal violet stained cells were dissolved in a solution of 70% ethanol containing 0.1% sodium dodecyl sulfate and 0.38 M Tris and the absorbance monitored at 610 nm, using the methods of Scragg and Ferreira (Anal Biochem 198:80-5, 1991) and Grando et al. (Skin Pharmacol 6:135-47, 1993).
# (§3) The cells of Example 7 were added to untreated polystyrene wells, wells coated with silyl-heparin as in Example 4, with silyl-heparin-fibronectin as in Example 5, and with only fibronectin by incubation as described in Example 5. […] Cells were seeded at a concentration of 10^4 cells/well in serum-containing medium.
# (§4) The cells grew to confluency by 4 days. […] No effort was made to grow the cells in a defined- or serum-low medium known to support growth.
# [4] = test system: GS-9L cells (rat gliosarcoma); experiment: as above; type: cell-based; details: 10^4 cells/well, serum-containing medium
# From the text: as §1, §2, §3, §4
# [5] = test system: C3H10T1/2 cells; experiment: Cross-titration of fibronectin and silyl-heparin needed to support cell attachment; type: cell-based, murine; details: silyl-heparin titrated from 30 μg/well, fibronectin then applied at 4 μg/well; 24 hours; crystal violet, 610 nm
# Description: The optimal amount of fibronectin and silyl-heparin to support attachment of C3H10T1/2 cells was determined by cross-titration, as shown on FIG. 1. […] The fall-off for the silyl-heparin was more gradual. The curve of the relative amount of silyl-heparin on the substrate following serial dilution generally followed the cell attachment curve.
# In FIG. 1, fibronectin (Δ—Δ) or silyl-heparin (•—•) were titrated to determine the quantity needed to support attachment of C3H10T1/2 cells. All dilutions were performed in quadruplicate in wells of 96-well plates of low-attachment polystyrene. For titration of fibronectin, silyl-heparin was applied at 30 μg/well in 70% ethanol as in Example 4. After rinsing, fibronectin was applied in doubling dilutions of phosphate buffered saline starting from 4 μg/well. For titration of silyl-heparin, silyl-heparin was applied in doubling dilutions in 70% ethanol starting from silyl-heparin concentrations of 30 μg/well. Fibronectin was then applied in saline at 4 μg/well. Cells were at a concentration of 10^4 cells/well in growth medium. For both experiments, the cells were allowed 24 hours to attach and then were rinsed and fixed in buffered formalin. The cells were stained for 5 minutes with 0.01% aqueous crystal violet and the absorbance at 610 nm determined.
# [6] = test system: C3H10T1/2 cells; experiment: C3H10T1/2 cell attachment to a variety of coated substrates; type: cell-based, murine
# Description: as §2
# The general applicability of silyl-heparin-fibronectin complex was evaluated by applying this coating using the methods of Examples 4 and 5 to a variety of surfaces, including polystyrene, polylactide:polyglycolide, polycaprolactone, polyurethane and stainless steel. […] They did, however, bind moderately well to polylactide:polyglycolide and to polycaprolactone, and very well to stainless steel.
# [7] = target: T1, vascular endothelial growth factor (VEGF) (Homo sapiens, UniProt P15692); experiment: VEGF binding to silyl-heparin coated wells, immunoassay; details: anti-VEGF antibodies; absorbance 405 nm
# T1 sequence (P15692 27-191 isoform P15692-4 limits assumed): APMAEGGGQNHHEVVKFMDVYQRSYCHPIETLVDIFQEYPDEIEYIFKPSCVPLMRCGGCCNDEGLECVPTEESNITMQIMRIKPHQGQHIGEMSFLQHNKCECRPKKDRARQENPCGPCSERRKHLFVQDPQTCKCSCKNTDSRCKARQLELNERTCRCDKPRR
# Description: Wells of 96 well polystyrene microtiter plates were coated with 30 μL of silyl heparin for 15 minutes at 37° C. The wells were rinsed extensively in water and air-dried. The wells were blocked by adding 250 μL of PBS containing 1 % BSA for 30 minutes. After removing the blocking solution, VEGF in PBS/BSA was added in 100 μL and at the appropriate concentration. The plate was incubated at 37° C. for 1 hour and rinsed 5 times in water. An aliquot of PBS/BSA containing rabbit anti-VEGF antibodies (1:125) was added and the plate incubated for one hour. After rinsing in water, an aliquot of PBS/BSA containing horseradish peroxidase-conjugated anti-rabbit IgG (1:250) was added and incubated for one hour. After rinsing, 200 μL of chromogen (2,2′-azinobis 3-ethylbenzothiazoline-6-[…]) from a commercially available kit was added, the color developed, and the reaction stopped by adding 50 μL of aqueous 2% sodium dodecyl sulfate (SDS). The absorbance was monitored at 405 nm.
substance,measurement,setting,value
"benzyl-(1,2 dimethyl)disilyl heparin [silyl-heparin]",diameter or area of granulation tissue surrounding the suture,[1],tended to have a smaller area of granulation
same,capillary tube formation,[2],Tubes did not form
same,CELL ATTACHMENT,[3],did not attach
same,CELL ATTACHMENT,[4],did not attach
same,EC50 to support attachment of C3H10T1/2 cells,[5],about 8.7 μg/well
same,C3H10T1/2 cell attachment on prolonged culture,[6]; cells cultured for up to 4 days,no cell attachment was evident
same,effect of coating or treatment on C3H10T1/2 cell attachment,[6]; regardless of the substrate,essentially eliminated cell attachment
same,C3H10T1/2 CELL ATTACHMENT,"[6]; surface: Stainless steel, determined by crystal violet staining",inhibition of cell attachment was noted
same,binding of VEGF to silyl-heparin,[7],VEGF bound to silyl-heparin and the binding was linear

# Source: US6921811B2, “Bioactive coating composition and methods” (BioSurface Engineering Technologies, Inc., priority 1998, dated 2005)
